Reference: patent publication US8802235B2, “Drug and imaging agent delivery compositions and methods” (priority 2012, dated 2014)

How the values were obtained:
MCF-7 cells [1] = assay: Cell growth inhibition (resazurin blue), MCF-7; assay type: cell-based, human; settings: 72 hours after drug addition
Experimental: Plates were seeded with 3,000 cells/well in 100 μL of media (12 replicates/sample). Drug or conjugate solutions were applied after 24 hours. […] The in vitro anti-proliferative activities of cisplatin, NO-donating prodrug, and their star polymer-based conjugates, including acid-Pt, acid-NO, and combinational acid-Pt/acid-NO were evaluated in cell culture using a human breast cancer cell line, MCF-7. […] The acid-Pt appeared to be less cytotoxic than cisplatin in the cells. This is likely due to the slow release of the active drug, which was not unexpected for a sustained-delivery platform. One of the obstacles that has not yet been overcome in infusion chemotherapy is the poor tumor penetration and accumulation of small-molecule anti-cancer agents. Usually the majority of the chemotherapeutics have been cleared from systemic circulation, via the kidneys, before a significant concentration of the anti-cancer agent is achieved in the tumorigenic tissues. However, the acid-Pt and acid-NO nanoconjugates may greatly enhance the intratumoral drug concentration compared to the normal tissues due to the Enhanced Permeability and Retention effect (EPR), in which nanoformulations tend to penetrate tumors more effectively via leaky, fenestrated tumor blood vessels. […]

MDA-MB-468 cells = assay: Cell growth inhibition (resazurin blue), MDA-MB-468; assay type: cell-based, human; settings: 72 hours
Experimental: (§1) Cell growth inhibition was determined in 96-well plates (3,000 cells/well in 100 μL, 12 replicates/sample) using highly invasive human breast cancer cells, MDA-MB-231, non-metastatic human breast cancer cells, MDA-MB-468, and highly invasive human head and neck squamous cell cancer cells positive for epithelia growth factor receptor, MDA-1986. Drug or conjugate solutions were applied after 24 hours, and 72 hours post-addition, resazurin blue in 10 μL of PBS was applied to each well (final concentration 5 μM).

MDA-1986 cells [2] = assay: Nitric oxide release (Griess) in cell culture with MDA-1986 cells; assay type: cell-based, human
Experimental: The fluorescence intensity was measured between 520 and 550 nm using a fluorescence microplate reader.
The concentration of nitrite, the stable breakdown product of gaseous nitric oxide, was measured using Griess assay as an indirect measurement of nitric oxide concentration in cell culture media. The assay is based on the reaction between sulfanilamide, N-1-napthyethylenediamine dihydrochloride and nitrite, under acidic conditions to produce a […] azo compound.

MCF-7 cells [3] = test system: MCF-7 cells
MDA-MB-231 cells = assay: Cell growth inhibition (resazurin blue), MDA-MB-231; assay type: cell-based, human; settings: 72 hours
Experimental: as §1

MDA-1986 cells [4] = assay: Cell growth inhibition (resazurin blue), MDA-1986; assay type: cell-based, human; settings: 72 hours
Experimental: as §1

IC50 (MCF-7 cells [1]): 48 ± 28 µM
IC50 (MDA-MB-468 cells): 26 ± 4 µM
Release half-life (MDA-1986 cells [2]): 7.1 h
Release half-life (MCF-7 cells [3]): 7.4 h
IC50 (MDA-MB-231 cells): 32 ± 3 µM
Compound: O=[N+]([O-])c1ccc(ON=[N+]([O-])N2CCN(CCOCCO)CC2)c([N+](=O)[O-])c1 [NO1, O^2-(2,4-Dinitrophenyl) 1-{[4-(2-(2-hydroxyethoxy))ethyl]piperazin-1-yl}diazen-1-ium-1,2-diolate]
IC50 (MDA-1986 cells [4]): 33 ± 1 µM
